What was measured:
[1] = Stability of ligands, imines, intermediates and catalysts (temperature, air, moisture, solvents); type: physicochemical; conditions: exposure to air
[2] = Catalytic oxidation of diphenylmethane into benzophenone; conditions: yields by flash column chromatography and mass calculation
Method: The conversion of diphenylmethane into benzophenone was selected to test the activity of catalyst salquCu 1 and to develop optimized conditions, Based on previous reports with salphCu, three equivalents of H2O2 in CH3CN as solvent with 1% by molar of the catalyst salquCu 1 was heated to reflux temperature for 18 hours. Under these conditions, the isolated yield of benzophenone was only 27%. Six experimental factors were considered to optimizing this reaction: oxidant (FIG. 7), catalyst ratio (FIG. 8), reaction time (FIG. 9), oxidant ratio (FIG. 10), solvent, and types of catalyst (FIG. 11 and Table 10).
First, four oxidants were tested using CH3CN as solvent in each case, with 1% of catalyst 1 at reflux temperature for 18 hours. […] When tert-butylhydroperoxide in water was used as the oxidant, the yield of product, benzophenone, was around 80%. (FIG. 7) The use of tert-butylhydroperoxide in decane allows for a uniform or monophasic organic soluble catalyst system, and thus further improves the optimal yield. […]
The synthesis of the products depicted in Table 11 began with the combination of catalyst 1 (0.02 mmol, 15.2 mg) and 2.0 mmol of starting material (aryl methylene compound) dissolved in 2.0 mL acetonitrile with 1.0 mL tert-butylhydroperoxide decane solution (6.0 mmol). The reaction mixture was allowed to stir for 18 hours at 70° C. and monitored by TLC. […]

Structure (SMILES): Nc1cc2ncc(O)nc2cc1N [Intermediate 1e]
- stability in air / atmospheric conditions [1]: not stable and was found to decompose on exposure to air
- Yield (%) of benzophenone, optimized conditions with different salquCu catalysts [2]: 90%
